Assay results reported in PMC6167049, “Structural and catalytic properties of the peroxygenase P450 enzyme CYP152K6 from Bacillus methanolicus” (Journal of Inorganic Biochemistry, 2018).

Experiments:
CYP152K6 [1] = molecular target: T1, CYP152K6 (Bacillus methanolicus, UniProt I3DZK9); test: X-band EPR and UV-visible spectroscopy; assay type: binding; conditions: ferric enzyme; EPR at 10 K, 1 and 2 mM ligand; UV-visible with 400 μM ligand, pH 8.0, 25 °C; H2O2-driven turnover also tested
T1 construct: gene cypC; codon-optimised synthetic gene in pET24b, E. coli BL21 (DE3); N-terminal 6xHis-tag cut with TEV protease; monomer; 417 residues in crystal model; co-purifies with tetradecanoic acid
T1 sequence (I3DZK9 whole entry): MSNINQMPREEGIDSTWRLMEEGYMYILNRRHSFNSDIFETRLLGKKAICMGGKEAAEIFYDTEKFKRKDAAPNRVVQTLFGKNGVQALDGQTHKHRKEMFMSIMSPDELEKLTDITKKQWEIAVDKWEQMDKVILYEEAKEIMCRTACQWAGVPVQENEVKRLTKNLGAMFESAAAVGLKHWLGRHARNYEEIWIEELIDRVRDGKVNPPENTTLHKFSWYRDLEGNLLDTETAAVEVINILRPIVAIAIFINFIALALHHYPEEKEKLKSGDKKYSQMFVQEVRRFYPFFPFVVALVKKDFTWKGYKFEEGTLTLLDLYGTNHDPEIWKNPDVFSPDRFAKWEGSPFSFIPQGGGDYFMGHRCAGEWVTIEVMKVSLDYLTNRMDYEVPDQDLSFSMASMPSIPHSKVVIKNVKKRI

CYP152K6 [2] = molecular target: T1, CYP152K6; test: X-ray crystal structure, […] Å; assay type: binding; conditions: co-purified from E. coli, bound above heme at Arg244; pH 8.0 protein buffer

Compound | X-band EPR and UV-visible spectroscopy (CYP152K6 [1]) | X-ray crystal structure, 1.3 Å (CYP152K6 [2])
CCCCCCCCCCCC(=O)O [dodecanoic acid] | the addition of dodecanoic acid alters the equilibria between the three major components | –
CCCCCCCCCCCCCC(=O)O [tetradecanoic acid] | – | The final model of CYP152K6 in complex with tetradecanoic acid has been deposited
